Source: patent US11377476B2, “Ras inhibitory peptides and uses thereof” (President and Fellows of Harvard College, priority 2014, dated 2022)
Converted amounts (≈) assume the structure as drawn. No end group written: not given here.

What was measured:
KRas = KRas (Homo sapiens, UniProt P01116, G12V); assay: Yeast surface display binding to KRas (FACS)
Ras = Ras (Homo sapiens, UniProt P01116, G12V); assay: Ras binding of disulfide-protected peptide on addition of glutathione; settings: Cys protected with 2,2′-Dipyridyldisulfide; 5 mM reduced glutathione
Source text: This cysteine is uncaged in the presence of […] glutathione levels to form the disulfide-bonded species, which is a better Ras binder. […] The experimentals are the similar to those described for FIG. 19.

[1] = Circular dichroism spectra and thermal melting at 222 nm; format: physicochemical; settings: for effect of mutation on peptide secondary structure by CD: pH 12, compared to 225-3; for Tm: CD at 222 nm
RalA = molecular target: T1, RalA (Homo sapiens, UniProt P11233); assay: Yeast surface display binding to RalA; settings: FIG. 38A-B
T1 sequence (P11233 1-206): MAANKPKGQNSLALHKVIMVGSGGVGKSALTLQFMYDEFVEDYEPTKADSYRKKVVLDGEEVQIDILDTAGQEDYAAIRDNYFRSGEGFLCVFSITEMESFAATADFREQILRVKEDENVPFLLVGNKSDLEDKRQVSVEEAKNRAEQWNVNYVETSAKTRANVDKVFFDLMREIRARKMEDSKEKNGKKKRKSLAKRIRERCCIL
Source text: (§1) Experimental for yeast display assays were similar to those used for FIG. 9. MY01 peptide of SEQ ID NO: 43 corresponds to the indicated high-binding population in FIG. 38C. Purification of the RalA protein was similar to the methods used for KRas constructs as discussed previously.

[2] = test system: H358 lung adenocarcinoma cells; assay: Live-cell confocal microscopy with fluorescein-labeled peptides; format: cell-based, human; settings: 5 uM, compared to SEQ ID NO: 10
Method: Human tumor cell lines (e.g., H358 or HPAF-II) were seeded into LabTek II culture chambers in DMEM media supplemented with 10% fetal calf serum and grown overnight at 37° C. under standard cell culture conditions. The following day, media was replaced with media containing 5 uM of fluorescein-labeled peptide and incubated for 4 hours at 37° C. The cells were washed, stained with NucBlue Hoechst 33342 and Dextran 10k Alexa647, then imaged on a confocal microscope. The fluorescent peptides were visualized with a 488 nm laser and is shown in green in FIGS. 34A-B.

Myc/Max heterodimer = Myc/Max heterodimer (Homo sapiens, UniProt P01106+P61244); assay: Yeast surface display binding to Myc/Max; settings: FIG. 38C
Source text: as §1
Purification of the Myc/Max proteins was done as follows. A bicistronic pET vector containing His6-yBBr-TEV-Myc (residues 353-434) and untagged Max (residues 22-102) was transformed into chemically competent BL21 cells. The cells were grown to OD600=0.7, induced with 0.25 mM IPTG for 5 hours at 30° C., then harvested and resuspended in lysis buffer (20 mM HEPES pH 7.5, 500 mM KCl, 5% glycerol) prior to snap-freezing in liquid nitrogen. For purification, the pellet was thawed, raised to 40 ml in the same buffer, and mixed with a Roche Complete EDTA-free protease inhibitor tablet. The cells were lysed with a tip sonicator (VirSonic, 6 cycles of 10 s on, 15 s off at 6.5 power level), then pelleted at 30,000×g for 30 minutes and filtered through a 0.45 uM Tuffryn membrane (Pall Corporation). The clarified lysate was added to 2 ml of HisPur Ni-NTA resin (Thermo Pierce) that had been equilibrated with the same buffer, and drained by gravity. The column was washed with 20 ml of buffer, then protein was eluted with buffer containing 150 mM imidazole and some protease inhibitor. […]

[3] = test system: endogenous Ras in Capan-1 cell lysate; assay: Peptide pulldown of Ras in Capan-1 cell lysate; format: binding, human; settings: for pulldown of endogenous Ras by biotinylated peptide: 5 μM peptide, streptavidin beads, western blot
GppNHp-bound Rapla = GppNHp-bound Rapla (Homo sapiens, UniProt P62834); settings: Rapla versus Ras
[4] = not told
[5] = Solubility of peptides in buffer
KRas (G12V).GppNHp = KRas (G12V).GppNHp (Homo sapiens, UniProt P01116, G12V); assay: Fluorescence polarization binding of FITC-labeled 225-3 and its alanine mutants to KRas; settings: alanine mutants of 225-3
[6] = molecular target: T2, endogenous Ras / Raf RBD interaction (Homo sapiens, UniProt P01116, G12V); assay: GST-Raf RBD pulldown of Ras in Capan-1 cell lysate, competition by peptide; format: biochemical; settings: lysate pre-incubated with 10 μM peptide
T2 construct: endogenous in cells; host or cells: Capan-1 lysate (Ras); the GST-Raf RBD was made in E. coli BL21 Rosetta I pLysS from pGEX-5X

[7] = molecular target: KRas (G12V) loaded with mant-GppNHp (Homo sapiens, UniProt P01116, G12V); assay: Mant nucleotide dissociation assay; format: biochemical; settings: 1 μM Raf or peptide, 500 nM Ras, excess GppNHp

## GCGGPRRPRYPGDDASIEDLHEYWARLWNYLYRVA [225-1 A30R]
KRas; 500 nM each of Ras.GTP and Ras.GDP, two-colour FACS
  selectivity KRas(GTP) vs KRas(GDP): more selective for KRas (GTP) than 225-1

## PRRPRCPGHAASIAALHAYWARLWNYLYRVR [Peptide 291-Q3]
Ras
  change in Ras binding upon addition of reduced glutathione: increase in Ras binding

## GCGGPRRPRRPRYPGDDASIEDLHEYWARLANYLYAVA [Peptide W25A]
[1]
  effect of mutation on peptide secondary structure by CD: significant destabilizing effect

## GCGGPRRPRYPGDDACEEDLHEYWARLWNYLYAVA [225-1 S13C/I14E]
KRas; 5 nM KRas, mutant pre-incubated with free 225-1
  binding of yeast-displayed peptide to KRas: binds Ras with increased affinity

## GPRRPRCPGDDASISDLLLYWLRLDRYLWAVA [SEQ ID NO: 44]
RalA
  binding to RalA: binds

## I14A: single alanine point mutant I14A of the 225-3 peptide (GCGGPRRPRRPRYPGDDASAEDLHEYWARLWNYLYAVA) [Peptide I14A]
[1]
  effect of mutation on peptide secondary structure by CD: significant destabilizing effect

## GCGGPRRPRRPRYPGDDASIEDLHEYAARLWNYLYAVA [Peptide W21A]
[1]
  effect of mutation on peptide secondary structure by CD: significant destabilizing effect

## GCGGPRRPRYPGDAASIAALHAYWARLWNYLYRVA [SEQ ID NO: 28]
[2]
  solubility / aggregates in microscopy: increased solubility

## GPRRPRCPGDDASIRDLVMYWYRLYFYLEAVA [SEQ ID NO: 45]
KRas; yeast surface display, FIG. 38
  binding to KRas: binds both RalA and KRas
RalA
  binding to RalA: binds both RalA and KRas

## GPRRPRCPGDDASIRDLLKYWWRLRLYLLAVA [SEQ ID NO: 43]
Myc/Max heterodimer
  binding to Myc/Max: binds

## CC[C@H](C)[C@H](NC(=O)[C@H](CO)NC(=O)[C@H](C)NC(=O)[C@H](CC(=O)O)NC(=O)[C@H](CC(=O)O)NC(=O)CNC(=O)[C@@H]1CCCN1C(=O)[C@H](Cc1ccc(O)cc1)NC(=O)[C@H](CCCNC(=N)N)NC(=O)[C@@H]1CCCN1C(=O)[C@H](CCCNC(=N)N)NC(=O)[C@H](CCCNC(=N)N)NC(=O)[C@@H]1CCCN1C(=O)[C@H](CCCNC(=N)N)NC(=O)[C@H](CCCNC(=N)N)NC(=O)[C@@H]1CCCN1C(=O)CNC(=O)CNC(=O)[C@H](CS)NC(=O)CN)C(=O)N[C@@H](CCC(=O)O)C(=O)N[C@@H](CC(=O)O)C(=O)N[C@@H](CC(C)C)C(=O)N[C@@H](Cc1c[nH]cn1)C(=O)N[C@@H](CCC(=O)O)C(=O)N[C@@H](Cc1ccc(O)cc1)C(=O)N[C@@H](Cc1c[nH]c2ccccc12)C(=O)N[C@@H](C)C(=O)N[C@@H](CCCNC(=N)N)C(=O)N[C@@H](CC(C)C)C(=O)N[C@@H](Cc1c[nH]c2ccccc12)C(=O)N[C@@H](CC(N)=O)C(=O)N[C@@H](Cc1ccc(O)cc1)C(=O)N[C@@H](CC(C)C)C(=O)N[C@@H](Cc1ccc(O)cc1)C(=O)N[C@@H](C)C(=O)N[C@H](C(=O)N[C@@H](C)C(=O)O)C(C)C [Peptide 225-3]
[3]
  pulldown of endogenous Ras by biotinylated peptide: pulled down Ras
[3]; lysate pre-incubated with Raf RBD (3 μM)
  pulldown of endogenous Ras by biotinylated peptide after Raf RBD pre-incubation: not when the lysate was pre-incubated with the Raf RBD
GppNHp-bound Rapla
  binding weaker than to Ras: more than 100 fold
[1]; pH 4.5
  Tm: 57 °C
[1]; pH 12
  Tm: 46.2 °C
[4]
  cell permeability: somewhat cell permeable

## CC[C@H](C)[C@H](NC(=O)[C@H](CO)NC(=O)[C@H](C)NC(=O)[C@H](CC(=O)O)NC(=O)[C@H](CC(=O)O)NC(=O)CNC(=O)[C@@H]1CCCN1C(=O)[C@H](Cc1ccc(O)cc1)NC(=O)[C@H](CCCNC(=N)N)NC(=O)[C@@H]1CCCN1C(=O)[C@H](CCCNC(=N)N)NC(=O)[C@H](CCCNC(=N)N)NC(=O)[C@@H]1CCCN1C(=O)CNC(=O)CNC(=O)[C@H](CS)NC(=O)CN)C(=O)N[C@@H](CCC(=O)O)C(=O)N[C@@H](CC(=O)O)C(=O)N[C@@H](CC(C)C)C(=O)N[C@@H](Cc1c[nH]cn1)C(=O)N[C@@H](CCC(=O)O)C(=O)N[C@@H](Cc1ccc(O)cc1)C(=O)N[C@@H](Cc1c[nH]c2ccccc12)C(=O)N[C@@H](C)C(=O)N[C@@H](CCCNC(=N)N)C(=O)N[C@@H](CC(C)C)C(=O)N[C@@H](Cc1c[nH]c2ccccc12)C(=O)N[C@@H](CC(N)=O)C(=O)N[C@@H](Cc1ccc(O)cc1)C(=O)N[C@@H](CC(C)C)C(=O)N[C@@H](Cc1ccc(O)cc1)C(=O)N[C@@H](C)C(=O)N[C@H](C(=O)N[C@@H](C)C(=O)O)C(C)C [Peptide 225-1]
[5]
  solubility: 100 to 200 µM (≈ 407 to 814 µg/mL)

## GCGGPRRPRRPRYPGDDASIEDLHEYWARLWAYLYAVA [Peptide N26A]
KRas (G12V).GppNHp
  reduction in measured binding affinity relative to 225-3: at least 100 fold
[3]
  pulldown of endogenous Ras by biotinylated peptide: not pulled down
[6]
  effect on pulldown of Ras by GST-tagged Raf RBD: did not disrupt this pulldown
[1]
  effect of mutation on peptide secondary structure by CD: unchanged compared to 225-3
[7]
  effect on rate of mantGppNHp dissociation from KRas: did not decrease the rate of dissociation
